Reference: patent US20080166753A1, “Microbial Growth Assay” (University Technologies International Inc., priority 2004, published 2008)
Entries after “also recorded” stand apart in the source; their conditions may differ.

Columns and labels:
[1] = system: P. aeruginosa mutant strain TTD2 biofilm; assay: Biofilm killing assessed by XTT absorbance, mutant strain TTD2; assay type: cell-based; conditions: strain TTD2 (contains gentamicin cassette), 48 h biofilm
Method: (§1) Biofilm Growth Conditions. Isolates were propagated in Mueller-Hinton broth (MHB). Flasks containing liquid medium (20 ml) were inoculated with a loopful of cells from MHB agar plates containing freshly grown isolates, and incubated overnight in an orbital shaker (100 rpm) at 37° C. Cells were harvested and resuspended in MHB at a cellular density equivalent to 1.0×10^6 cells per milliliter. Biofilms were formed on the pegs of the Calgary Biofilm Device (CBD; MBE™ Biofilm Technologies, Ltd., Edmonton AB), described in Ceri et al. (Ceri et al., J. Clin. Microbiol., 37(6):1771-6, 1999). The device consists of 96 conical pegs attached to a plastic lid. […]
(§2) Optimizing XTT Assay. In order to optimize the quantities of 2,3-bis[2-methyloxy-4-nitro-5-sulfophenyl]-2H-tetrazolium-5-carboxanilide (XTT; Sigma) and menadione required for quantifying biofilm metabolic activity, varying concentrations were tested. […] The concentration of menadione (2-methyl-1,4-naphthoquinone; Sigma), the electron-coupling agent, was varied to establish the optimal molarity in respect to maximal absorbance readings. […] The change in XTT absorbance at 490 nm was assessed spectrophotometerically using an automated microtiter plate reader. It was determined that 75 μM gave the optimal change in absorbance after 2 h (FIG. 7). […]
(§3) Assessment of Biofilm Killing Kinetics Using XTT. […] XTT absorbance readings were taken at 2 h and then at 24 h. […]

[2] = system: P. aeruginosa mutant strain 4G6 biofilm; assay: Biofilm killing assessed by XTT absorbance, mutant strain 4G6; assay type: cell-based; conditions: strain 4G6 (contains gentamicin cassette), 48 h biofilm
Method: as §1, §2, §3

gentamicin
Susceptibility as assessed by XTT absorbance [1]: less susceptible; also recorded: decreased susceptibility | Susceptibility as assessed by XTT absorbance [2]: less susceptible; also recorded: decreased susceptibility
